What is called IC50 is the midpoint of a concentration-inhibition curve. In general, Ki refers to a dissociation constant, usually derived from enzyme kinetics or from competition with a known ligand. As usually defined, the efflux ratio is the permeability from basolateral to apical divided by that in the opposite direction, in the common usage. Broadly, the Papp A→B is how fast a substance crosses the layer from the apical side. A lower Papp A→B goes with slow passage. One may read the Papp B→A as how fast a substance crosses the layer from the basolateral side.

Read-outs that look alike come from different tables or passages of the source. Bounds are passed on as bounds.

Series [1] addresses T1, rat brain nicotinic receptor (α7 NAChR) (Rattus norvegicus (Rat), UniProt Q05941). Type of series: binding. As to conditions: Protocol No. 2; [3H] α-Bungarotoxin 0.4 nM, rat brain P2 membrane.
In the next series the target is Human α7 NAChR (Homo sapiens (Human), UniProt P36544). Kind of series: Electrophysiology screen at 1 μM in Xenopus laevis oocytes. As to conditions: 1 μM test compound; Imax = maximal current produced by 3 mM ACh. Format: cell-based. The method, then:
Human α7 NAChR plasmid was prepared by GeneWiz from accession NM_000746.5. Human α7 NAChR mRNA was prepared by TriLink at a concentration near 1 μg/μL. The human α7 NAChR mRNA was diluted in sterile water to a working concentration near 10 ng/μL.
Oocytes were obtained from Xenopus laevis frogs and treated with collagenase by Ecocyte Bioscience. Oocytes were injected with the working concentration of α7 NAChR mRNA at a volume of 50 nL for a total of approximately 0.5 ng of α7 NAChR mRNA. Oocytes were maintained in Barth's solution at a temperature of 16° C. The Barth's solution was replaced daily.
Two-electrode voltage clamp recordings were made 3-14 days following mRNA injections at a holding voltage of −70 mV. The NAChR recordings were performed in Ca^++-free Ringer solution (115 mM NaCl, 2 mM KCl, 1.8 mM BaCl2, 5 mM HEPES; pH˜7.4) to limit Ca^++-activated chloride currents.
In all oocyte recordings, drug and wash solutions were applied using a custom-designed microcapillary “linear array” which allows rapid application of agonists. Currents were recorded on a PC-based computer (PClamp, Molecular Devices, Sunnyvale, Calif.). Responses were reported as (I/Imax), where I is the amount of current given by a selected concentration of drug and Imax is the amount of maximal current produced by a 3 mM solution of ACh.
Stocks of test compounds were prepared in DMSO. Test solutions in Ringer were prepared immediately before application of test compound (final DMSO concentration of 0.1%). The final concentration of test compound in the test solution was 1 μM. The test solution was perfused onto the oocyte until a peak current was recorded. There was approximately two minutes of wash time with only the Ringer solution between each application of agonist. Measurement of the test solution was repeated between 2 and 6 times with a two minute wash time between each application of test solution. An average of the currents for each test compound was used to define the response for the test compound.

A short description of series [2]: Caco-2 permeability assay. Type of series: in vitro ADME. As to conditions: human. The method, then: Caco-2 cells were obtained from American Tissue Culture Collection (Rockville, Md.). The cells were maintained in Modified Eagle's medium (MEM), containing 10% heat-inactivated fetal bovine serum (FCS) and 1% non-essential amino acids, in CO2 at 37° C. Cells were seeded on polycarbonate filter inserts (Millipore, CAT#PSHT 010 R5).
The cells were cultivated for 21-28 days prior to the transport experiments. The transepithelial electric resistance (TEER) and Lucifer Yellow permeability were checked routinely before and after the assay. Compounds were dissolved at 10 mM in 100% dimethyl sulfoxide (DMSO) and diluted for studies in Hank's Balanced Salt Solution (HBSS, Invitrogen, Cat#14025-092) with 25 mM HEPES, pH 7.4. Compounds were tested at 10 μM, and in both the apical-to-basolateral (A-B) and basolateral-to-apical (B-A) directions, at 37° C. for 90 min. At the end of incubation, donor samples were diluted 10-fold by assay buffer, then 60 μL of receiver and diluted-donor samples were mixed with 60 μL of acetonitrile, and analyzed by LC-MS/MS. The concentrations of the compounds were quantified by standard curve.
(Passage across Caco-2 layers is used to estimate intestinal permeability.)

Series [3] has as its target T1, rat brain nicotinic receptor (α7 NAChR). Type of series: binding.
Another series concerns the target hERG channels (Homo sapiens (Human), UniProt Q12809). As to the kind of experiment: hERG inhibition assay (automated patch clamp, CHO cells). Type of series: cell-based. As to the method: hERG study was conducted with an automated patch clamp machine, Qpatch-48HT (Sophion Biosciences, Denmark). Cultured CHO cells stably expressing hERG channels (provided by Sophion Biosciences, Denmark) were harvested from culture flasks of 70-90% cell confluence rate and prepared as cell suspension with a cell density of 3-8×10^6 cells/mL in serum-free media (CHO-S-SFM II, cat#12052 Invitrogen; 25 mM HEPES). Cells in such condition were placed into a Qpatch cell stir chamber and used within 4 hours.
For each run, cells were first spun down by the built-in Qpatch centrifuge and re-suspended in an extracellular solution (in mM, 2 CaCl2, 1 MgCl2, 4 KCl, 145 NaCl, 10 Glucose, 10 HEPES, pH 7.4, osmolarity ˜305 mOsm). Qplate-48 that holds one cell in each of its 48 channels for the later voltage-clamped assay were primed with the extracellular solution and intracellular solution (in mM, 5.4 CaCl2, 1.75 MgCl2, 120 KCl, 10 HEPES, 5 EGTA, 4 NaATP, pH 7.25, Osmolarity ˜280-295 mOsm). Cells were dispatched by Qpatch robotic dispensing guns into each Qplate channel and went through the process of giga-ohm sealing and whole cell configuration. Whole-cell recordings were performed in voltage-clamp mode at a holding potential of −80 mV. […]
A general note: Block of hERG is tested as a sign of cardiac risk.

A further series addresses CYP3A4 (Homo sapiens (Human), UniProt P08684). As to conditions: microsomes, 5 min.
For the next series, the target named is CYP1A2 (Homo sapiens (Human), UniProt P05177). As to the kind of experiment: Cytochrome P450 inhibition in human liver microsomes, CYP1A2. As to conditions: read-out: 1A2 IC50, Protocol 1. On the technique in general: Microsomes from liver hold many membrane-bound enzymes, among them those of drug oxidation.
Sequence of CYP1A2 (P05177 whole entry): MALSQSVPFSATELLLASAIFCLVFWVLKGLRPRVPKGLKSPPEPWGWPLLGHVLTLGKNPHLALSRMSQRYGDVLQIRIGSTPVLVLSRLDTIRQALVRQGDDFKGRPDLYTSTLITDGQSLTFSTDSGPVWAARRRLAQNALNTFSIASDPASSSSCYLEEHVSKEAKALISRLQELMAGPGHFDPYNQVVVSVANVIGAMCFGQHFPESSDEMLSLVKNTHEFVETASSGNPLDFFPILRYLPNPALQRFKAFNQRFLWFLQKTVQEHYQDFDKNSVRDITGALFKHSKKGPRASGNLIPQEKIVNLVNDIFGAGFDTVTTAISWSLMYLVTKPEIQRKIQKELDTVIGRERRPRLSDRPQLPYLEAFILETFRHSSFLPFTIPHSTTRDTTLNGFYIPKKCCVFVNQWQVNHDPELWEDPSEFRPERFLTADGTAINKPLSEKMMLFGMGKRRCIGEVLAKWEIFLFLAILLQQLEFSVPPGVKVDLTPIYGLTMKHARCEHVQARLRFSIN
Another series deals with CYP2C9 (Homo sapiens (Human), UniProt P11712). As to the kind of experiment: Cytochrome P450 inhibition in human liver microsomes, CYP2C9. As to conditions: read-out: 2C9 IC50, Protocol 1.
Sequence of CYP2C9 (P11712 whole entry): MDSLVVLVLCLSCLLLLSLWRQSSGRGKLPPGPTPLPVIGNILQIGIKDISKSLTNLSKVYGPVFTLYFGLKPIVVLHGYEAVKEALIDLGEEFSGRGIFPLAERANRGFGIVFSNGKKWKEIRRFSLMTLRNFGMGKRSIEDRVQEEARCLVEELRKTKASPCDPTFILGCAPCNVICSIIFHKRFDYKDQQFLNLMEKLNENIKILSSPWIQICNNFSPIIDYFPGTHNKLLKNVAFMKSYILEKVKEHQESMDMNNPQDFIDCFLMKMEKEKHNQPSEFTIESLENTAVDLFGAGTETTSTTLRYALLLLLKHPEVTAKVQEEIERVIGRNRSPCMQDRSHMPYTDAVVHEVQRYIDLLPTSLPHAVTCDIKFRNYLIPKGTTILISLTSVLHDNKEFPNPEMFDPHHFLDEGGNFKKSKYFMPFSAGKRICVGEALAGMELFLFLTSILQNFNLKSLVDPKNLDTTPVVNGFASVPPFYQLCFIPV
In the next series the target is CYP2C19 (Homo sapiens (Human), UniProt P33261). Kind of series: Cytochrome P450 inhibition in human liver microsomes, CYP2C19. As to conditions: read-out: 2C19 IC50, Protocol 1.
Sequence of CYP2C19 (P33261 whole entry): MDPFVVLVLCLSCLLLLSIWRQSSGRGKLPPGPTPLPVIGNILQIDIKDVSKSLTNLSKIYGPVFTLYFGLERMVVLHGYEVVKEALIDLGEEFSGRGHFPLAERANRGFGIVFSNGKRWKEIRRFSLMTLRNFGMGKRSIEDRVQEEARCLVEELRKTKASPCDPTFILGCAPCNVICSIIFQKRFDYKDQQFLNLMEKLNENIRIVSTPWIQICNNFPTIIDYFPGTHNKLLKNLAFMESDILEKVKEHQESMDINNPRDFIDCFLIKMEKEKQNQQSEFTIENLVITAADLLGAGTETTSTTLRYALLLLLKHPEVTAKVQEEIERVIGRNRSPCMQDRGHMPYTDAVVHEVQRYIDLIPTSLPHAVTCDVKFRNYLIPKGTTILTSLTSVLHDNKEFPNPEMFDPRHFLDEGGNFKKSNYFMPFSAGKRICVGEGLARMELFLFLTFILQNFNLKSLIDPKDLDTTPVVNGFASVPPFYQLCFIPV

T1 sequence (Q05941 23-502 limits assumed): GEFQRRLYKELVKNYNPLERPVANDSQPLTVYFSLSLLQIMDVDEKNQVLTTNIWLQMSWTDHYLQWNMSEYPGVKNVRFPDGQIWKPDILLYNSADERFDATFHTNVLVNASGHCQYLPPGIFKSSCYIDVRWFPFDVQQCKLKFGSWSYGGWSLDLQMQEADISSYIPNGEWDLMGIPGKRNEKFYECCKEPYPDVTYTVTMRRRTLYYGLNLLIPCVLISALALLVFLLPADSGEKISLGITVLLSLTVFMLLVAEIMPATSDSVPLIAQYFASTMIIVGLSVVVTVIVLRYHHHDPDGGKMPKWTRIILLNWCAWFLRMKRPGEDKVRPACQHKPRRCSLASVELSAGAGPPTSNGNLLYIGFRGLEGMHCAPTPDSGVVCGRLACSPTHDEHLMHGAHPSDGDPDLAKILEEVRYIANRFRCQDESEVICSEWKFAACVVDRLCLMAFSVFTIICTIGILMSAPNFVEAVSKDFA
Sequence of CYP3A4 (P08684 whole entry): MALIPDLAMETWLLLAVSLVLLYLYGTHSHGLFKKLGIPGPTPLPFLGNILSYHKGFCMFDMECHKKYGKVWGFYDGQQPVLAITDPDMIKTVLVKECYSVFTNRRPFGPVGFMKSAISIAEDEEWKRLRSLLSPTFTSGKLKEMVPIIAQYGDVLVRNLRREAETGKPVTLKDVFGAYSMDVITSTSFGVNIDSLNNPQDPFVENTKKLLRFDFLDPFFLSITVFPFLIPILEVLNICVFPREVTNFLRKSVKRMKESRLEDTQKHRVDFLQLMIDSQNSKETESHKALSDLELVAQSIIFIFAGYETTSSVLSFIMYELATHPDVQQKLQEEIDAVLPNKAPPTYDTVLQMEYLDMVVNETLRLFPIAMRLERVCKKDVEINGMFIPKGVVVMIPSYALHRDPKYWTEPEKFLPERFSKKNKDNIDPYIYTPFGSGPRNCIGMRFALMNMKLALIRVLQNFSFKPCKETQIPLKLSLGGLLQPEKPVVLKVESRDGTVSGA
Sequence of Human α7 NAChR (P36544 23-502 limits assumed): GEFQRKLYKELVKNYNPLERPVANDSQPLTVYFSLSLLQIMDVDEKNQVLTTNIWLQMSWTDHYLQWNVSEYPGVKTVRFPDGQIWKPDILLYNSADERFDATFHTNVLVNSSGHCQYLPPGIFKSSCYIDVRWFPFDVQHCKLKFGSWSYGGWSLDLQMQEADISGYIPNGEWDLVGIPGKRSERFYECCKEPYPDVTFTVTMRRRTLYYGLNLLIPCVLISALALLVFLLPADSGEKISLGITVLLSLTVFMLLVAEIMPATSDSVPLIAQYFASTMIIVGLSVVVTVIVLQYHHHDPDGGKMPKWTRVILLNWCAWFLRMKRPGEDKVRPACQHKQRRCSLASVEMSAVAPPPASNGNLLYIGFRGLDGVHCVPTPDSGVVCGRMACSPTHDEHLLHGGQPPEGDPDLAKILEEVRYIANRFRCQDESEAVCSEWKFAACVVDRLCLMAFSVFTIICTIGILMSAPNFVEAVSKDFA
Sequence of hERG channels (Q12809 whole entry): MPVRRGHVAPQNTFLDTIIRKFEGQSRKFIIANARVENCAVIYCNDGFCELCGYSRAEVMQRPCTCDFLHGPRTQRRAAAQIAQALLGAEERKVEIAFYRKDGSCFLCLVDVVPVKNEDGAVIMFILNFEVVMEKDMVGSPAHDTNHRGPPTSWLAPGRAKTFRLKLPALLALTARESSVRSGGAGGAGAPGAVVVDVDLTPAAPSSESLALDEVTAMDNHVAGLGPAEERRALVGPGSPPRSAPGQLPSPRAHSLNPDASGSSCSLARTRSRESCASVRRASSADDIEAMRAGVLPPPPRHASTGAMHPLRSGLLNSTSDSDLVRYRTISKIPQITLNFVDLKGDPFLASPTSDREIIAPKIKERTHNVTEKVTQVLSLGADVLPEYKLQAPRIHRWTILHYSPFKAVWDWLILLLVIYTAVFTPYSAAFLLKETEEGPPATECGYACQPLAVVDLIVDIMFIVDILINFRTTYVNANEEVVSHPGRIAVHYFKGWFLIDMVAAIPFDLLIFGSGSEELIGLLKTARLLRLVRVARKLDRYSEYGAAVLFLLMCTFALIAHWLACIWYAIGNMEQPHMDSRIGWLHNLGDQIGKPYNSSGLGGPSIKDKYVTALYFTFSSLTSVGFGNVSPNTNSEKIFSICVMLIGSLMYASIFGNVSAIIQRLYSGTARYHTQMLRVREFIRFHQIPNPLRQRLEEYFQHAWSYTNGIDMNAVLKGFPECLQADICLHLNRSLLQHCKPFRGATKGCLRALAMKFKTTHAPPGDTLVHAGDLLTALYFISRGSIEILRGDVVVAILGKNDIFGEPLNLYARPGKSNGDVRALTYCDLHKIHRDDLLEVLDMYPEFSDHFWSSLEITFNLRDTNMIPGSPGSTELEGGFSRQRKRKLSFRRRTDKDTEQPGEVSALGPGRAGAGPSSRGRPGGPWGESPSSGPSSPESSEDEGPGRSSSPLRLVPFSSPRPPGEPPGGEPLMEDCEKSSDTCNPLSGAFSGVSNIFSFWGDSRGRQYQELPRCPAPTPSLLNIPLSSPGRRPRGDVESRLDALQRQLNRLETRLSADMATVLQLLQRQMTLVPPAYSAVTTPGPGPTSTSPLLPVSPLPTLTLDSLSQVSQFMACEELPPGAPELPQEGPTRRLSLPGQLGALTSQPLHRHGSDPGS

As to `COc1c(OCC(F)(F)F)ccc2[nH]cc(C(=O)OCC34CCN(CC3)CC4)c12` [Compound 88, quinuclidin-4-ylmethyl 4-methoxy-5-(2,2,2-trifluoroethoxy)-1H-indole-3-carboxylate], in series [1], the concentration for half-maximal inhibition (IC50) stood at 211 nM and the Ki came out at 356 nM. At Human α7 NAChR, this compound came in with an I/Imax of 0.185. Besides, the efflux ratio at 90 min, 10 μM in [2] (pH 7.4, Caco-2, 10 μM) turned out to be 7.86. In series [2] (pH 7.4, Caco-2, apical-to-basolateral, 10 μM), this compound had an apical-to-basolateral permeability (Papp A→B) at 90 min, 10 μM of 3.25 ×10⁻⁶ cm/s. For the same compound, the Papp B→A at 90 min, 10 μM in series [2] (pH 7.4, Caco-2, basolateral-to-apical, 10 μM) turned out to be 25.5 ×10⁻⁶ cm/s.
As to `Cc1cc(Cl)c2c(C(=O)OCC34CCN(CC3)CC4)c[nH]c2c1.Cl` [Compound 65, quinuclidin-4-ylmethyl 4-chloro-6-methyl-1H-indole-3-carboxylate hydrochloride], the IC50 stood at 63.6 nM in series [3] and 2430 nM against hERG channels. In addition, the Ki in series [3] came out at 54.6 nM. On Human α7 NAChR, this compound showed an I/Imax of 0.212.
`O=C(OCC12CCN(CC1)CC2)c1c[nH]c2cc(O)cc(Cl)c12` [Compound 46, quinuclidin-4-ylmethyl 4-chloro-6-hydroxy-1H-indole-3-carboxylate]: the IC50 is 33.4 nM in series [3]; > 30000 nM against hERG channels; > 10000 nM against CYP3A4; > 10000 nM at CYP1A2; > 10000 nM on CYP2C9; > 10000 nM at CYP2C19. For the same compound, the Ki in [3] worked out at 28.6 nM.

Source of the values: patent US9434724B2, “Quinuclidines for modulating alpha 7 activity” (priority 2014, dated 2016).
